Results on three compounds are retold here after patent publication US6376536B1, “Quaternary ammonium salts and their use” (Takeda Chemical Industries, Ltd., priority 1998, dated 2002).

Where a name gives a salt, the structure may show the parent alone.

Data set [1] has as its system HIV-1 BA-L. The experiment in a line: Inhibitory effect on HIV-1 infection to MAGI-CCR5 cell. It is filed as cell-based. The settings on record: Human immunodeficiency virus 1, BAL, 48 h; 0.064 μM Test Compound medium; MAGI-CCR5 cells; 300 PFU HIV-1 BA-L; 2 days; blue cell count. As for the experimental part: The plasmid where β-galactosidase gene was ligated downstream of HIV-1 LTR was introduced into CD4 positive HeLa cell, to which human CCR5 was further introduced to obtain transformant MAGI-CCR5. By using said transformant MAGI-CCR^5, degree of HIV-1 infection was calculated from β-galactosidase activity (blue color due to decomposition of 5-bromo-4-chloro-3-indolyl-β-D-galactopyranoside). Specifically, MAGI-CCR5 cells were suspended in DMEM medium containing 10% serum to prepare 5×10^4 cells/ml suspension. To each well of 96 well plate was inoculated 200 μl of the suspension, and the cells were cultivated at 37° C. overnight. The medium was removed by means of suction, and to the residue was added 100 μl of the above medium containing 0.064 μM of Test Compound and 100 μl of the above medium containing 300 PFU of HIV-1 BA-L cells. The cells were cultivated at 37° C. for 2 days. The medium was removed by means of suction. To the residue was added 200 μl of cell fixative (PBS containing 1% formaldehyde and 0.2% glutaraldehyde), and the mixture was allowed to stand at room temperature for 5 minutes and washed twice with PBS. […] The number of blue cells was counted by microscope and defined as the number of cells infected with HIV-1.

For data set [2], the system named is HIV-1 BA-L. Nature of the data set: Inhibitory effect on HIV-1 infection to human PBMC (p24 antigen ELISA). The format is cell-based. The settings on record: Human immunodeficiency virus 1, BAL, 0.032 μM Test Compound solution, p24 antigen in supernatant. As for the experimental part: From normal person human peripheral blood mononuclear cells (PBMC) were separated, and the cells were stimulated with 10 μg/ml of PHA (Phytohemaglutinin) and 20 U/ml of interleukin-2 (IL-2) for 3 days. The cells were suspended in RPMI-1640 medium containing 20% serum to prepare 1×10 ^6/ml suspension. To the suspension were infected HIV-1 BA-L cells (20 ng as an amount of p24 antigen), and viruses were absorbed at 37° C. for 2 hours. The cells were washed and suspended in RPMI-1640 medium containing 20% serum and IL-2 20 U/ml to prepare 1×10^5/ml suspension. To the PBMC suspension was added the same amount of a solution which contains 0.032 μM of Test Compound, and the cells were cultivated at 37° C. in carbon dioxide gas incubator. The amount of p24 antigen in supernatant of the cultivated medium was determined by enzyme-linked immunosorbent assay (ELISA) and defined as degree of HIV-1 infection.
On the technique in general: In an ELISA, binding on a coated surface is turned into a signal by an enzyme label.

A further data set has as its target T1, human CCR5 (Homo sapiens, UniProt P51681).
T1 construct: expressed in transfected cells; plasmid pCKR5 = pcDNA3.1 with about 1.0 kb CCR5 insert
The experiment in a line: [125I]-RANTES binding inhibition on CHO/CCR5 cells. The note with it: Test Compound 1 μM, 100 pM [125I]-RANTES. As for the experimental part:
CHO-K1 cells were grown in 750 ml of tissue culture flask (Becton Dickinson) using Ham's F12 medium (Nihon Pharmaceutical) containing 10% fetal calf serum (Life Tech Oriental) and took off with 0.5 g/L trypsin-0.2 g/L EDTA (Life Tech Oriental). The cells were washed with PBS (Life Tech Oriental), centrifuged (1000 rpm, 5 minutes), and suspended in PBS. With using Gene Pulser (Bio-Rad Laboratories), DNA was introduced into the cells under the conditions shown below. That is, to the cuvette of 0.4 cm gap were added 8×10^6 cells and 10 μg of plasmid pCKR5 for expression of human CCR5, and electroporation was carried out under 0.25 kV of voltage and 960 μF. of capacitance. The cells where transferred into Ham's F12 medium (Nihon Pharmaceutical) containing 10% fetal calf serum, and cultivated for 24 hours. The cells were again took off and centrifuged, and suspended in Ham's F12 medium (Nihon Pharmaceutical) containing 10% fetal calf serum and 500 μg/ml of geneticin (Life Tech Oriental). […] Radioactivity was determined with γ-counter to select CHO/CCR5 cells which specifically bind to the ligand.
The CHO/CCR5 were inoculated on 96 well microplate (5×10^4 cells/well) and cultivated for 24 hours. […] Radio-activity was determined with TopCount Micro Scintillation Counter (Packard Instrument, Inc.). […]

T1 sequence (P51681 whole entry): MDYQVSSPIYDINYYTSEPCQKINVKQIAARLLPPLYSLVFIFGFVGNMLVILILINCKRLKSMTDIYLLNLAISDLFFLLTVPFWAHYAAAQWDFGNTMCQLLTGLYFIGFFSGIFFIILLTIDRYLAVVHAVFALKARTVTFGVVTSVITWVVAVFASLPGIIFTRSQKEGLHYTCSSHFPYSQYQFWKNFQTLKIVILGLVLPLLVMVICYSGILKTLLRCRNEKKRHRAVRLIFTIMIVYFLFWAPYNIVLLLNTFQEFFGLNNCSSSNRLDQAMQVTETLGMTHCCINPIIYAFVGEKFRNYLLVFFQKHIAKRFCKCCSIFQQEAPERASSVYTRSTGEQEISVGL

For the compound `Cc1ccc(-c2ccc3c(c2)C=C(C(=O)Nc2ccc(C[N+](C)(C)C4CCOCC4)cc2)CCC3)cc1` [Compound 1, N,N-dimethyl-N-(4-(((2-(4-methylphenyl)-6,7-dihydro-5H-benzocyclohepten-8-yl)carbonyl)amino)benzyl)-N-(4-tetrahydropyranyl)ammonium chloride], in the data set with HIV-1 BA-L [1], the inhibition – broadly, the relative decrease from the control value, in per cent – at 0.064 µM amounted to 100%. Also, the inhibition at 0.032 µM in the data set with HIV-1 BA-L [2] worked out at 74%.

As to `CCOc1ccc(-c2ccc3c(c2)C=C(C(=O)Nc2ccc(C[N+](C)(C)C4CCOCC4)cc2)CCO3)cc1` (as salt: chloride) [Compound 3, N-(4-(((7-(4-ethoxyphenyl)-2,3-dihydro-1-benzoxepin-4-yl)carbonyl)amino)benzyl)-N,N-dimethyl-N-(4-tetrahydropyranyl)ammonium chloride], the melting point (usually the temperature, or range, at which the solid turns liquid) lay within 200 to 204 °C.

With `Cc1ccc(-c2ccc3c(c2)C=C(C(=O)Nc2ccc(C[N+](C)(C)C4CCC(=O)CC4)cc2)CCO3)cc1.[Cl-]` [Compound 2], the “Inhibition Rate (%) to CCR5 binding” value at human CCR5 turned out to be 96%.
